The target in the assay is T1, rabbit GLP-1R (Oryctolagus cuniculus, UniProt G1SGD4).
T1 construct: expressed in transfected cells
T1 sequence (G1SGD4 24-462): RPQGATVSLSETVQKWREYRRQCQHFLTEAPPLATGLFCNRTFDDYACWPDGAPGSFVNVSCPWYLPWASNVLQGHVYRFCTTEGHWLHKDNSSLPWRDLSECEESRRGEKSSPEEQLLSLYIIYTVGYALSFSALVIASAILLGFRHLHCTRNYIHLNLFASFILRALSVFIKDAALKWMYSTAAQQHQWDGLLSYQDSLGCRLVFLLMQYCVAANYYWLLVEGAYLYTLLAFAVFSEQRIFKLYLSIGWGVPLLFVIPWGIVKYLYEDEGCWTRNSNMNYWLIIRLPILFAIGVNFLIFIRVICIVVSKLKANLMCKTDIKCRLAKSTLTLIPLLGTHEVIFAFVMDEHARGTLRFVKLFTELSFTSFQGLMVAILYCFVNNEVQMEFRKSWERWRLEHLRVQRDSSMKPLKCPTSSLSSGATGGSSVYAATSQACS
The assay can be described thus: Agonistic activity on GLP-1R of different species (LANCE Ultra cAMP assay): rabbit. It is filed as cell-based. As to conditions: ratio of EC50 value of other species to human EC50 value. The procedure: The in vitro agonistic activity of the compound of the present invention on GLP-1R was measured in cells stably expressing human, dog, mouse, rat, rabbit, and monkey GLP-1R (human GLP-1R-HEK, dog GLP-1R-HEK, mouse GLP-1R-HEK, rat GLP-1R- in HEK, rabbit GLP-1R-CHO, monkey GLP-1R-HEK cells). Human GLP-1R-HEK, dog GLP-1R-HEK, mouse GLP-1R-HEK, rat GLP-1R-HEK, rabbit GLP-1R-CHO, and monkey GLP-1R-HEK cells were resuspended in 1×Casein Stimulation Buffer (HBSS, 5 mM HEPES, 0.5 mM IBMX, 0.1% casein, pH7.4), and seeded into a 384-well cell culture plate at 9 µL/well (cell numbers being 1000, 1000, 1000, 1500, 1000, 1000 cells/well, respectively). 1 µL of 1×Casein Stimulation Buffer containing 10× compound was added to the above-mentioned 384-well cell culture plate. The plate was incubated at 37 °C for 30 minutes. After the incubation was completed, 5 µL of Eu-cAMP working solution and 5 µL of Ulight^TM-cAMP working solution were added sequentially, centrifuged and then incubated at room temperature for 1 hour. The readings at 665 nm and 620 nm were determined with a 330 nm excitation light on a microplate reader. The 665 nm/620 nm reading ratio was calculated. […] GraphPad was used to perform nonlinear regression according to the response percentage and the concentration of the compound added to obtain the EC50 value for each compound.

From patent EP4813403A1, “USE OF GLP-1R/GIPR DOUBLE-TARGET AGONIST IN PREPARING ANIMAL DRUG” (Hangzhou Zhongmeihuadong Pharmaceutical Co., Ltd., priority 2023, dated 2025) come the findings set out here.

In the case of `CC[C@H](C)[C@H](NC(=O)C(C)(C)NC(=O)[C@H](Cc1ccc(O)cc1)NC(=O)[C@H](CC(=O)O)NC(=O)[C@H](CO)NC(=O)[C@@H](NC(=O)C(C)(Cc1ccccc1)NC(=O)[C@@H](NC(=O)CNC(=O)[C@H](CCC(=O)O)NC(=O)C(C)(C)NC(=O)[C@@H](N)Cc1ccc(O)cc1)[C@@H](C)O)[C@@H](C)O)C(=O)NC(C)(C)C(=O)N[C@@H](CC(C)C)C(=O)N[C@@H](CC(=O)O)C(=O)N[C@@H](CCCCN)C(=O)N[C@@H](CCC(N)=O)C(=O)N[C@@H](C)C(=O)N[C@@H](CCC(N)=O)C(=O)N[C@@H](C)C(=O)N[C@@H](CCC(=O)O)C(=O)N[C@@H](Cc1ccccc1)C(=O)N[C@H](C(=O)N[C@@H](CCCCNC(=O)COCCOCCNC(=O)COCCOCCNC(=O)COCCOCCNC(=O)CC[C@H](NC(=O)CCCCCCCCCCCCCCCCCCCCC(=O)O)C(=O)O)C(=O)N[C@@H](Cc1c[nH]c2ccccc12)C(=O)N[C@@H](CC(C)C)C(=O)N[C@@H](CC(C)C)C(=O)N[C@@H](CCCCN)C(=O)NCC(=O)NCC(=O)N1CCC[C@H]1C(=O)N[C@@H](CO)C(=O)N[C@@H](CO)C(=O)NCC(=O)N[C@@H](C)C(=O)N1CCC[C@H]1C(=O)N1CCC[C@H]1C(=O)N1CCC[C@H]1C(=O)N[C@@H](CO)C(=O)N[C@@H](CCCCN)C(N)=O)C(C)C` (stereo partly shown) [Compound P016], the “GLP-1R EC50 ratio” value came to 1.05.
